For three compounds, IC50 results are on record in US8212031B2, “Pyrrolotriazine kinase inhibitors” (Bristol-Myers Squibb Company, priority 2008, dated 2012).

This assay has as its target IGF1-receptor (Homo sapiens, UniProt P08069). The assay is described as follows: IGF1-Receptor Tyrosine Kinase Assay. The format is biochemical. Particulars: in vitro kinase assay; ATP 25 μM; FL-peptide 1.5 μM; IGF1-Receptor 14 nM; 60 min room temperature; Caliper LabChip 3000; read-out: IGF1R kinase IC50. As for the experimental part:
A IGF1-Receptor Tyrosine Kinase Assay
The assays were performed in U-bottom 384-well plates. The final assay volume was 30 μl prepared from 15 μl additions of enzyme and substrates (fluoresceinated IGF1R substrate peptide and ATP) and test compounds in assay buffer (100 mM HEPES pH 7.4, 10 mM MnCl2, 0.015% Brij35 and 4 mM DTT). The reaction was initiated by the combination of IGF1-receptor with substrates and test compounds. The reaction was incubated at room temperature for 60 min. and terminated by adding 30 μl of 35 mM EDTA to each sample. The reaction mixture was analyzed on the Caliper LabChip 3000 by electrophoretic separation of the fluorescent substrate and phosphorylated product Inhibition data were calculated by comparison to no enzyme control reactions for 100% inhibition and vehicle-only reactions for 0% inhibition. The final concentration of reagents in the assays are ATP, 25 μM; FL-peptide, 1.5 μM; IGF1-Receptor, 14 nM; and DMSO, 1.6%. Dose response curves were generated to determine the concentration required inhibiting 50% of kinase activity (IC50). Compounds were dissolved at 10 mM in dimethylsulfoxide (DMSO) and evaluated at eleven concentrations, each in duplicate. IC50 values were derived by non-linear regression analysis.

IGF1-receptor, sequence (P08069 31-1367): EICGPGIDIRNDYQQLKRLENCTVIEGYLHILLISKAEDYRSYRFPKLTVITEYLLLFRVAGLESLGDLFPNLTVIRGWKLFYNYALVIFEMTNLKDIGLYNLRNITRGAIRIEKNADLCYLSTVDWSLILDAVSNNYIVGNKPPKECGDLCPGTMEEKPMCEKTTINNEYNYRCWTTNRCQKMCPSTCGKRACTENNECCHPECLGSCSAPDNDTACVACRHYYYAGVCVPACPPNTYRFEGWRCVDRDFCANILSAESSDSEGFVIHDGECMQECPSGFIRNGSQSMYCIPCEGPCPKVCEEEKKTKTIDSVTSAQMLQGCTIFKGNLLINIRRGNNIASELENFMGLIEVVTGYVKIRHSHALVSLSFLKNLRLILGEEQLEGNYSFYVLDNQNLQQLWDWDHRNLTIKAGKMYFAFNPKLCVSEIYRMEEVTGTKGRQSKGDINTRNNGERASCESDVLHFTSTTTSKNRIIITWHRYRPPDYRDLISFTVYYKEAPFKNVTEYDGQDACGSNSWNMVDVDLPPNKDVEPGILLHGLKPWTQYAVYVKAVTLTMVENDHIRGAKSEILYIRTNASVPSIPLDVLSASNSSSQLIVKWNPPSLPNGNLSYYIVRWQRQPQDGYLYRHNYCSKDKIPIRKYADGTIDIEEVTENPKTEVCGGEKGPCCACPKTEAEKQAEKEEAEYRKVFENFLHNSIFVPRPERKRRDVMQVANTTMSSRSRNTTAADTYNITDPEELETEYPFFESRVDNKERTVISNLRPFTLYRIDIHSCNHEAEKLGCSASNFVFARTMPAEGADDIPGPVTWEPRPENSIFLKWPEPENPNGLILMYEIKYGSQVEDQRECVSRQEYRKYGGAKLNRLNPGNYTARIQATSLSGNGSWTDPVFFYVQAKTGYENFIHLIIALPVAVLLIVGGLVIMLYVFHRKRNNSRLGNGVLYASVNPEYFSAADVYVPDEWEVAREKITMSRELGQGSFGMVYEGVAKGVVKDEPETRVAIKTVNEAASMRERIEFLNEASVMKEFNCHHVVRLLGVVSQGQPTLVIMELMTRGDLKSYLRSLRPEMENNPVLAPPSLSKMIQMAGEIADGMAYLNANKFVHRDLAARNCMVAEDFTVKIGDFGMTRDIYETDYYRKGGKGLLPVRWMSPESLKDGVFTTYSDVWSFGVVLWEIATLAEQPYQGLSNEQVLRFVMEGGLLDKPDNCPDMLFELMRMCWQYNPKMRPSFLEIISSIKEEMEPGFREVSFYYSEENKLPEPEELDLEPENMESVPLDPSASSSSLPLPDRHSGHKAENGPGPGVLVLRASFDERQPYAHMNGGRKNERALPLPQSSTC

A word on the IC50: it is the concentration that gives 50% inhibition. As to `O=C(c1nccs1)N1CCCCN1c1nc(Nc2cc(C3CC3)n[nH]2)c2cccn2n1` [Example 4], the IC50 worked out at 62 nM. In the case of `O=C(Nc1ccc(F)nc1)N1CCCCN1c1nc(Nc2cc(C3CC3)n[nH]2)c2cccn2n1` [Example 2], the IC50 turned out to be 20 nM. For `O=C(Nc1nccs1)N1CCCCN1c1nc(Nc2cc(C3CC3)n[nH]2)c2cccn2n1` [Example 3], the IC50 came to 2 nM.
